Ki data for two molecules are collected here from US12492199B2, “Pyridopyrimidines as histamine H4-receptor inhibitors” (FAES FARMA, S.A., priority 2018, dated 2025).

One assay addresses human H4 receptor (Homo sapiens (Human), UniProt Q9H3N8). Put plainly: H4 Binding assay ([3H]histamine competition, membranes from CHO-K1 cells transfected with human H4 receptor). The following applies: affinity for human histamine H4 receptor, class symbols; read-out: ACTIVITY CLASS hH4R (Ki). How it is done:
Affinity for histamine H4-receptor was determined by H4 Binding assay:
• Membranes from CHO-K1 cells transfected with human H4 receptor and microplates of 96-well format were used. • For competition studies cell membranes were homogenated in Tris-HCl 50 mM, EDTA 5 mM, pH 7.4 and added to the microplate at the concentration of approximately 15 μg/well. […] Non specific binding was defined using 10 μM unlabeled histamine and the total incubation volume was 275 μl per well. • Incubations were performed under gentle agitation at 25° C. for 60 min and concluding with a rapid vacuum filtration using pre-soaked filters (0.5% polyethylenimine). After ten rapid washes with cold wash buffer (50 mM Tris-HCl buffer) the filter plates were dried at room temperature for 30 min. • Finally, scintillation liquid (Microscint 20) was added to the whole microplate in order to measure the radioactivity reattained on the filters using a specific scintillation counter (Top Count—NXT). […] H1 Binding Assay Materials

In a further assay the target is human H1 receptor (Homo sapiens (Human), UniProt P35367). As to the kind of experiment: H1 Binding assay ([3H]pyrilamine competition, membranes from CHO-K1 cells transfected with human H1 receptor). The following applies: affinity for human histamine H1 receptor, class symbols; — not defined in key; read-out: ACTIVITY CLASS hH1R (Ki). How it is done:
Cetirizine and pyrilamine were supplied by Sigma-Aldrich. Bilastine was synthetized at FAES FARMA facilities (Lamiako-Leioa, Spain), chemical reagents such as Na2HPO4, KH2PO4 or polyvinylpyrrolidone as well as multiscreen microplates (MSFBN6B50) were purchased from Merck Millipore, scintillation liquid (Microscint 20), human H1 membranes (ES-390-M400UA) and ^3H-pirilamina (NET 594) were provided by PerkinElmer.
Affinity for histamine H1-receptor was determined by H1 Binding assay: • Membranes form CHO-K1 cells transfected with human H1 receptor and microplates of 96-well format were used. • For competition studies cell membranes were homogenated in 50 mM phosphate buffer (Na2HPO4 and KH2PO4 mixed to pH 7.4 at 25° C.) and added to the microplate at the concentration of approximately 5 μg/well. […] Non specific binding was defined using 10 μM unlabeled pyrilamine and the total incubation volume was 275 μl per well. • Incubations were performed until gentle agitation at 25° C. for 60 min and concluding with a rapid vacuum filtration using pre-soaked filters (5% polyvinylpyrrolidone). After ten rapid washes with cold wash buffer (50 mM phosphate buffer) the filter plates were dried at room temperature for 30 min. • Finally, scintillation liquid (Microscint 20) was added to the whole microplate in order to measure the radioactivity retained on the filters using an specific scintillation counter (Top Count—NXT). Curve analysis and values of IC50 were determined using Grap Pad Prism program (GraphPad Software, San Diego, USA). • Test compounds were initially evaluated at one concentration (1 μM) and thereafter if significant displacement was observed (>40%) a concentration-response curve was conducted. Each test concentration was measured in triplicate. • As reference compounds pyrilamine, cetirizine and Bilastine were used.

Sequence of human H1 receptor (P35367 whole entry): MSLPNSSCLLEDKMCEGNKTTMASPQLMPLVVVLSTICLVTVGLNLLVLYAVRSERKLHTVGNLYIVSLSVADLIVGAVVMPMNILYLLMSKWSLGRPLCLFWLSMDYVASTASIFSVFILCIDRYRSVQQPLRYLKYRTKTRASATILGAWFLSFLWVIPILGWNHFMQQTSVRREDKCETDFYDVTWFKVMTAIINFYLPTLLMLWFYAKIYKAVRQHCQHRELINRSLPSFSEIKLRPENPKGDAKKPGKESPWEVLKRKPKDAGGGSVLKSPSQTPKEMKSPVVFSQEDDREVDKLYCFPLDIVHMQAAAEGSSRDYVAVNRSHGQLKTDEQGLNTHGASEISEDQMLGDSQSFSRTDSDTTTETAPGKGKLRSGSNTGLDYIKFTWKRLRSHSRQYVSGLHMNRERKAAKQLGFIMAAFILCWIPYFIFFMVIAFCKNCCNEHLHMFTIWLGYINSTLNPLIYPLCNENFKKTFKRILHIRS
Sequence of human H4 receptor (Q9H3N8 whole entry): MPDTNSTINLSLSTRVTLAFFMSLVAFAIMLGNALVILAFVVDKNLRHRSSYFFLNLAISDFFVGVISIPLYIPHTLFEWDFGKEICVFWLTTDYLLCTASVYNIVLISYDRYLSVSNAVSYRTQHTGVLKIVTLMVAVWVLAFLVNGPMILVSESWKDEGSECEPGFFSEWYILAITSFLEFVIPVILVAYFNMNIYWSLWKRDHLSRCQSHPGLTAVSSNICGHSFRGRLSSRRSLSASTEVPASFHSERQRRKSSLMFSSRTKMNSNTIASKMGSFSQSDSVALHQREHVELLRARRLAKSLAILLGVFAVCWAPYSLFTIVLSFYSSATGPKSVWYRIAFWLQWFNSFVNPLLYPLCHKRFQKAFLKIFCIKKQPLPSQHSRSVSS

In the case of `CN1CCN(c2nc(NCc3ccsc3)c3cc(Cl)ncc3n2)CC1` [Example 5, 6-chloro-2-(4-methylpiperazin-1-yl)-N-(thiophen-3-ylmethyl)pyrido[3,4-d]pyrimidin-4-amine], the Ki at human H4 receptor and on human H1 receptor was under 1000 nM in each case.

In the case of `CN1CCN(c2nc(NCCS(=O)(=O)Nc3ccccc3Cl)c3cc(Cl)ncc3n2)CC1` [Example 72, 2-((6-chloro-2-(4-methylpiperazin-1-yl)pyrido[3,4-d]pyrimidin-4-yl)amino)-N-(2-chlorophenyl)ethane-1-sulfonamide], the inhibition constant Ki is under 100 nM at human H4 receptor and under 1000 nM on human H1 receptor.
